Where a name gives a salt, the structure may show the parent alone.
Experiments:
[1] = target: T1, PIM1 serine/threonine kinase (Homo sapiens, UniProt P11309); test: PIM1 serine/threonine kinase inhibitory effect; format: biochemical; settings: PIM1 serine/threonine kinase activity; ATP 40 μM; 30° C., 30 minutes
T1 construct: purchased Carna Bioscience, Inc
In short: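 Compounds were tested in duplicate from 0.01 to 10000 nM final against PIM1 kinase (0.15 μg/ml). The reaction ran for 30 minutes at 30° C with 40 μM ATP and 0.5 μM biotin-tagged substrate at pH 7.0. Phosphorylation was read by time-resolved FRET (OD665/OD620) after 1 h; IC50 by non-linear fit.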

[2] = target: PIM1 transgenic cells (Ba/F3) (Homo sapiens, UniProt P11309); test: Proliferation inhibitory effect on PIM1 transgenic cells; format: cell-based, mouse; settings: proliferation inhibition, 72 hours, Cell Counting Kit-8, read-out: PIM1 IC50
In short: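 Mouse Ba/F3 pro-B cells were retrovirally transduced with human PIM1 so that their proliferation depends on PIM1. Cells were treated with compound at 1–10000 nM final for 72 h, then read by CCK-8 (OD450−OD650). Inhibition was set against DMSO (0%) and no-cell blank (100%), and IC50 was obtained by two-parameter logistic regression.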

PIM1 transgenic cells (Ba/F3), sequence (P11309 whole entry, stated change not applied): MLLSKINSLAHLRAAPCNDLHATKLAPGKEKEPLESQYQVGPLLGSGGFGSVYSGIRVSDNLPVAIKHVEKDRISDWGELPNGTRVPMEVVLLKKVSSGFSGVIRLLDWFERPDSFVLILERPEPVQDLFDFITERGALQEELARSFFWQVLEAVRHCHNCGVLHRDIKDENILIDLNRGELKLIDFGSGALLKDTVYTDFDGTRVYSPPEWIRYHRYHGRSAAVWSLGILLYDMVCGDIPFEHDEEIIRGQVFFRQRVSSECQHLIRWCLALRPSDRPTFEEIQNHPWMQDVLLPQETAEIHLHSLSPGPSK
T1 sequence (P11309 whole entry): as the sequence (P11309 whole entry, stated change not applied) above

Structure (SMILES) | IC50 [1] [nM] | GI50 [2] [nM]
C[C@H](Nc1cc(-c2n[nH]c(=O)o2)cc(F)c1Cl)C1CCNCC1 [Example 76, 5-(4-chloro-3-fluoro-5-{[(1S)-1-(piperidin-4-yl)ethyl]amino}phenyl)-1,3,4-oxadiazol-2(3H)-one hydrochloride] | 1.9 | 31
C[C@@H]1CNCC[C@@H]1[C@H](C)Nc1cc(-c2n[nH]c(=O)o2)cc(F)c1Cl [Example 222, 5-[4-chloro-3-fluoro-5-({(1S)-1-[(3S,4S)-3-methylpiperidin-4-yl]ethyl}amino)phenyl]-1,3,4-oxadiazol-2(3H)-one] | 2.4 | 19
C[C@@H]1CN([C@@H](C)[C@H]2CC[C@H](N)CC2)c2cc(-c3n[nH]c(=O)o3)cc(F)c2O1 [Example 253, 5-[(2R)-4-{(1S)-1-[(1r,4S)-4-aminocyclohexyl]ethyl}-8-fluoro-2-methyl-3,4-dihydro-2H-1,4-benzoxazin-6-yl]-1,3,4-oxadiazol-2(3H)-one hydrochloride] | 3 | 81
O=c1[nH]nc(-c2ccc(Cl)c(OC[C@H]3C[C@@H](N4CCNCC4)C3)c2)o1 [Example 242, 5-(4-chloro-3-{[(1s,3s)-3-(piperazin-1-yl)cyclobutyl]methoxy}phenyl)-1,3,4-oxadiazol-2(3H)-one] | 10 | 2600
C[C@@H]1CNCC[C@@H]1[C@H](C)Nc1cc(-c2n[nH]c(=O)o2)ccc1OC(F)(F)F [Example 218, 5-[3-({(1S)-1-[(3S,4S)-3-methylpiperidin-4-yl]ethyl}amino)-4-(trifluoromethoxy)phenyl]-1,3,4-oxadiazol-2(3H)-one] | 2.9 | 27
C[C@H](Nc1c(F)c(-c2n[nH]c(=O)o2)cc(F)c1Cl)C1CCNCC1 [Example 88, 5-(4-chloro-2,5-difluoro-3-{[(1S)-1-(piperidin-4-yl)ethyl]amino}phenyl)-1,3,4-oxadiazol-2(3H)-one hydrochloride] | 2.4 | 110
C[C@H](Nc1cc(-c2n[nH]c(=O)o2)cc2[nH]ncc12)C1CCNCC1 [Example 100, 5-(4-{[(1S)-1-(piperidin-4-yl)ethyl]amino}-1H-indazol-6-yl)-1,3,4-oxadiazol-2(3H)-one dihydrochloride] | 1.9 | 260
NCC1CCN(c2cc(-c3n[nH]c(=O)o3)ccc2Cl)CC1 [Example 6, 5-{3-[4-(aminomethyl)piperidin-1-yl]-4-chlorophenyl}-1,3,4-oxadiazol-2(3H)-one] | 59 | 3600
O=c1[nH]nc(-c2ccc(Cl)c(NC3CCNCC3)c2)o1 [Example 31, 5-{4-chloro-3-[(piperidin-4-yl)amino]phenyl}-1,3,4-oxadiazol-2(3H)-one hydrochloride] | 70 | 3300
O=c1[nH]nc(-c2ccc(Br)c(OCC3CCNCC3)c2)o1 [Example 235, 5-{4-bromo-3-[(piperidin-4-yl)methoxy]phenyl}-1,3,4-oxadiazol-2(3H)-one] | 7.7 | 650
N[C@H]1CC[C@H](Nc2cc(-c3n[nH]c(=O)o3)cc(F)c2Cl)CC1 [Example 40, 5-(3-{[(1r,4r)-4-aminocyclohexyl]amino}-4-chloro-5-fluorophenyl)-1,3,4-oxadiazol-2(3H)-one hydrochloride] | 6.2 | 440
C[C@H](Nc1cc(-c2n[nH]c(=O)o2)ccc1C(F)F)C1CCNCC1 [Example 90, 5-[4-(difluoromethyl)-3-{[(1S)-1-(piperidin-4-yl)ethyl]amino}phenyl]-1,3,4-oxadiazol-2(3H)-one] | 21 | 3800
O=c1[nH]nc(-c2ccc(C(F)(F)F)c(N3CCC4(CCNCC4)CC3)c2)o1 [Example 15, 5-[3-(3,9-diazaspiro[5.5]undecan-3-yl)-4-(trifluoromethyl)phenyl]-1,3,4-oxadiazol-2(3H)-one hydrochloride] | 15 | 600
O=c1[nH]nc(-c2cc(F)c(C(F)(F)F)c(N[C@@H](CF)C3CCNCC3)c2)o1 [Example 160, 5-[3-fluoro-5-{[(1R)-2-fluoro-1-(piperidin-4-yl)ethyl]amino}-4-(trifluoromethyl)phenyl]-1,3,4-oxadiazol-2(3H)-one hydrochloride] | 1.2 | 40
N[C@H]1CC[C@H](COc2cc(-c3n[nH]c(=O)o3)ccc2Cl)CC1 [Example 241, 5-(3-{[(1r,4r)-4-aminocyclohexyl]methoxy}-4-chlorophenyl)-1,3,4-oxadiazol-2(3H)-one] | 3.7 | 79

Second part, the compound after the results:

IC50 [1] [nM] | GI50 [2] [nM] | Structure (SMILES)
26 | 610 | Cc1ccc(-c2n[nH]c(=O)o2)cc1NC[C@H]1CC[C@H](N)CC1 [Example 67, 5-[3-({[(1r,4r)-4-aminocyclohexyl]methyl}amino)-4-methylphenyl]-1,3,4-oxadiazol-2(3H)-one hydrochloride]
4 | 73 | CC[C@H](Nc1cc(-c2n[nH]c(=O)o2)ccc1C(F)(F)F)C1CCNCC1 [Example 138, 5-[3-{[(1S)-1-(piperidin-4-yl)propyl]amino}-4-(trifluoromethyl)phenyl]-1,3,4-oxadiazol-2(3H)-one hydrochloride]
2.6 | 120 | N[C@H]1CC[C@H](CSc2cc(-c3n[nH]c(=O)o3)ccc2C(F)(F)F)CC1 [Example 234, 5-[3-({[(1r,4r)-4-aminocyclohexyl]methyl}sulfanyl)-4-(trifluoromethyl)phenyl]-1,3,4-oxadiazol-2(3H)-one]
2.6 | 47 | CN[C@H]1C[C@@H]([C@H](C)Nc2cc(-c3n[nH]c(=O)o3)ccc2C(F)(F)F)C1 [Example 192, 5-[3-({(1S)-1-[(1s,3R)-3-(methylamino)cyclobutyl]ethyl}amino)-4-(trifluoromethyl)phenyl]-1,3,4-oxadiazol-2(3H)-one hydrochloride]
140 | 4200 | N[C@H]1CC[C@H](CNc2cc(-c3n[nH]c(=O)o3)ccc2-c2ccccc2)CC1 [Example 71, 5-[2-({[(1r,4r)-4-aminocyclohexyl]methyl}amino)[1,1′-biphenyl]-4-yl]-1,3,4-oxadiazol-2(3H)-one hydrochloride]
8.7 | 140 | C[C@H](Nc1cc(-c2n[nH]c(=O)o2)ccc1C(F)(F)F)C1CCCNCCC1 [Example 162, 5-[3-{[(1S)-1-(azocan-5-yl)ethyl]amino}-4-(trifluoromethyl)phenyl]-1,3,4-oxadiazol-2(3H)-one hydrochloride]
3.6 | 81 | O=c1[nH]nc(-c2ccc(C(F)(F)F)c(N[C@@H](C(F)F)C3CCNCC3)c2)o1 [Example 113, 5-[3-{[(1R)-2,2-difluoro-1-(piperidin-4-yl)ethyl]amino}-4-(trifluoromethyl)phenyl]-1,3,4-oxadiazol-2(3H)-one hydrochloride]
2.3 | 26 | CC1(C)[C@H](CNc2cc(-c3n[nH]c(=O)o3)ccc2C(F)(F)F)C[C@@H]1N [Example 166, 5-[3-({[(1R,3S)-3-amino-2,2-dimethylcyclobutyl]methyl}amino)-4-(trifluoromethyl)phenyl]-1,3,4-oxadiazol-2(3H)-one hydrochloride]
3.5 | 68 | CC[C@H](Nc1cc(-c2n[nH]c(=O)o2)ccc1C(F)(F)F)[C@H]1CC[C@H](N)CC1 [Example 181, 5-[3-({(1S)-1-[(1r,4S)-4-aminocyclohexyl]propyl}amino)-4-(trifluoromethyl)phenyl]-1,3,4-oxadiazol-2(3H)-one hydrochloride]
0.6 | 61 | N[C@H]1CC[C@H](CNc2cc(-c3n[nH]c(=O)o3)cc(F)c2Cl)CC1 [Example 86, 5-[3-({[(1r,4r)-4-aminocyclohexyl]methyl}amino)-4-chloro-5-fluorophenyl]-1,3,4-oxadiazol-2(3H)-one hydrochloride]
14 | 610 | CC1CC(CNc2cc(-c3n[nH]c(=O)o3)ccc2C(F)(F)F)CCN1 (stereo not drawn) [Example 143, 5-[3-{[(2-methylpiperidin-4-yl)methyl]amino}-4-(trifluoromethyl)phenyl]-1,3,4-oxadiazol-2(3H)-one hydrochloride]
14 | 1000 | O=c1[nH]nc(-c2ccc(C(F)(F)F)c(NCCN3CCNCC3)c2)o1 [Example 65, 5-[3-{[2-(piperazin-1-yl)ethyl]amino}-4-(trifluoromethyl)phenyl]-1,3,4-oxadiazol-2(3H)-one dihydrochloride]
140 | 1900 | C[C@H](Nc1cc(-c2n[nH]c(=O)o2)ccc1C(F)(F)F)[C@H]1CC[C@H](NCC(F)(F)F)CC1 [Example 197, 5-[3-{[(1S)-1-{(1r,4S)-4-[(2,2,2-trifluoroethyl)amino]cyclohexyl}ethyl]amino}-4-(trifluoromethyl)phenyl]-1,3,4-oxadiazol-2(3H)-one hydrochloride]
3 | 71 | CN[C@H]1CC[C@H](CNc2cc(-c3n[nH]c(=O)o3)ccc2C(F)(F)F)CC1 [Example 131, 5-[3-({[(1r,4r)-4-(methylamino)cyclohexyl]methyl}amino)-4-(trifluoromethyl)phenyl]-1,3,4-oxadiazol-2(3H)-one hydrochloride]
4.4 | 1200 | O=c1[nH]nc(-c2ccc(C(F)(F)F)c(NCC3CCNCC3)c2)o1 [Example 48, 5-[3-{[(piperidin-4-yl)methyl]amino}-4-(trifluoromethyl)phenyl]-1,3,4-oxadiazol-2(3H)-one hydrochloride]

Source: patent US20220024921A1, “1,3,4-OXADIAZOLONE COMPOUND AND PHARMACEUTICAL” (NIPPON SHINYAKU CO., LTD., priority 2018, published 2022)
